Measured values published in article PMC12299847, “Macroalgae-Inspired Brominated Chalcones as Cosmetic Ingredients with the Potential to Target Skin Inflammaging” (Marine Drugs, 2025).

System: iNOS protein levels in RAW264.7 macrophages
Assay: Western blot analysis of iNOS expression in LPS-stimulated macrophages
Assay type: cell-based, murine
Details: for iNOS expression level: normalized against LPS condition
Experimental: To investigate the underlying mechanism of action of the most promising brominated chalcones (1 and 2), their effects on iNOS protein levels were assessed in LPS-stimulated macrophages at different time points (4, 6, and 24 h). The non-treated (NT) condition, consisting of macrophages stimulated with LPS but receiving no chalcone treatment, was used as the reference for maximal iNOS induction under inflammatory conditions and served as a positive control. The selected concentrations (7.5 μM and 15 μM) were selected based on chalcones 1 and 2 cytocompatibility (Figure 3) and efficacy in reducing NO production (Figure 4). Since NO production is a direct consequence of iNOS enzymatic activity, where the enzyme catalyzes the conversion of L-arginine to NO following inflammatory stimulation such as LPS, this provides a functional readout of iNOS expression and activity.
Here, we focused on validating iNOS expression at the protein level by western blot (Figure 6). While gene-level expression was not assessed, it is well established that LPS stimulation induces both iNOS transcription and translation in RAW 264.7 macrophages. Moreover, changes observed at the protein level are often closely associated with upstream transcriptional or translational modulation. Therefore, quantifying iNOS protein levels provides a biologically relevant measure of the chalcones’ inhibitory effects on this key inflammatory mediator.
The expression of the iNOS enzyme was analyzed by western blot. RAW264.7 macrophages were seeded at a density of 1 × 10^6 cells/well in a 6-well plate and incubated for 24 h at 37 °C in a humidified atmosphere containing 5% CO2. After incubation, cells were treated with 7.5 µM or 15 µM of the most promising chalcones (1 and 2) for 30 min, followed by the addition of LPS to have a final concentration of 100 ng/mL. Cells were then incubated for 4, 6, or 24 h. At each time point, cells were washed with PBS and lysed in RIPA buffer. The lysates were collected in Eppendorf tubes and kept on ice, with intermittent vortexing to ensure thorough lysis. Samples were centrifuged at 18,000× g for 16 min at 4 °C, and the supernatant was collected. Total protein concentration was determined using the Pierce™ BCA Protein Assay Kit (Thermo Scientific, 23225, Waltham, MA, USA), following the manufacturer’s instructions. Equal amounts of protein (25 µg) were loaded onto Bolt™ 8% Bis-Tris Mini Protein Gels (Invitrogen™, NW00087BOX, Waltham, MA, USA) and separated via electrophoresis. Proteins were then transferred onto nitrocellulose membranes (Invitrogen™, IB24002) using the iBlot® 2 dry transfer system (Invitrogen™, Waltham, MA, USA). After transfer, membranes were sectioned to separate the iNOS bands from those of the housekeeping protein GAPDH. Membranes were blocked for 1 h at room temperature in TBS-T containing 5% BSA and subsequently incubated overnight at 4 °C with primary antibodies against iNOS (Cell Signaling Technology, 16713120S, Danvers, MA, USA) or GAPDH (Abcam, ab181602, Cambridge, UK), diluted in TBS-T with 1% BSA. On the following day, membranes were washed three times with TBS-T and incubated for 1 h at room temperature with an HRP-conjugated secondary antibody (Cell Signaling Technology, 7074S) diluted in TBS-T with 1% BSA. After three additional washes, signal detection was performed using Clarity™ Western ECL Substrate (Bio-Rad, 1705061, Hercules, CA, USA), and chemiluminescent signals were acquired using the Odyssey FC imaging system (LI-COR, Lincoln, NE, USA). Densitometric analysis of iNOS bands was performed using Image Studio™ Software (version 5.2, LI-COR, Lincoln, NE, USA), with values normalized to the corresponding GAPDH bands.
Figure 6 iNOS expression level after treatment of 4, 6, and 24 h with chalcones 1 and 2 in macrophage cell line. Results are expressed as volume arbitrary unit (A). […]

**Q.** `COc1cc(Br)c(/C=C/C(=O)c2cc(OC)c(OC)cc2Br)cc1OC` [Chalcone 1] was tested. Which iNOS expression level (7.5 µM, 4 h) did it give?
**A.** Its iNOS expression level is 84.7%.

**Q.** What about the iNOS expression level (7.5 µM, 24 h) of the same compound?
**A.** The iNOS expression level was 14.3%.

**Q.** And the iNOS expression level (15 µM, 4 h)?
**A.** The iNOS expression level was 28.3%.

**Q.** What about the iNOS expression level (15 µM, 6 h) of the same compound?
**A.** The iNOS expression level was 13.5%.

**Q.** And the iNOS expression level (15 µM, 24 h)?
**A.** The iNOS expression level was 16.7%.

**Q.** And the “maximum reduction of iNOS expression” value (regardless of concentration (7.5 µM at 24 h, 15 µM at 6 h))?
**A.** The value was “approximately 85%”.
